The structures appear in SMILES notation. Like-named read-outs stand apart in the source and are kept apart here.

The text below walks through data of patent publication US20210101881A1 (Ancureall Pharmaceutical (Shanghai) Co., Ltd., priority 2018, published 2021).

Assay [1] addresses T1, CDK9/CyclinK kinase (Homo sapiens, UniProt P50750).
T1 construct: purchased Promega Corporation V4105
In words: CDK9 protein kinase activity, ADP-Glo CDK9/CyclinK kinase detection kit. The assay is classed as biochemical. To be noted: read-out: IC50 of the compound for inhibiting CDK9 protein kinase activity, CDK9/CyclinK kinase. The method, then: Measurement of CDK9 Protein Kinase Activity
The present compound was dissolved in DMSO (Sigma Aldrich), and the initial concentration of the compound was 1000 nM. A two-fold serial dilution was carried out. The specific operation of CDK9 kinase activity determination was carried out according to the ADP-Go™ CDK9/CyclinK kinase detection experimental procedure. […] Each test sample was tested in duplicate, and the test was repeated once. The inhibitory activity (IC50) of the compound on CDK9 protein kinase was calculated from the dose-inhibition curve of the compound.
Background: ADP-Glo first removes unused ATP, then detects ADP through luciferase.

In assay [2] the test system is MOLM13 cells. In words: Growth inhibition of CDK9-positive cell line MOLM13 in vitro (CCK8/MTT assay). The assay is classed as cell-based, human. To be noted: Homo sapiens. A general note: Formazan colour is commonly taken as a measure of viable cells.
Where [3] appears, read: MOLM-13, MOLM13 cells, cultured 3 to 6 days, CCK8, read-out: IC50 of the compound for inhibiting cell growth, MOLM13 cells.
The mark [4] stands for this setting: MOLM-13, read-out: IC50 of the compound for inhibiting cell growth, MOLM13 cells.

T1 sequence (P50750 whole entry): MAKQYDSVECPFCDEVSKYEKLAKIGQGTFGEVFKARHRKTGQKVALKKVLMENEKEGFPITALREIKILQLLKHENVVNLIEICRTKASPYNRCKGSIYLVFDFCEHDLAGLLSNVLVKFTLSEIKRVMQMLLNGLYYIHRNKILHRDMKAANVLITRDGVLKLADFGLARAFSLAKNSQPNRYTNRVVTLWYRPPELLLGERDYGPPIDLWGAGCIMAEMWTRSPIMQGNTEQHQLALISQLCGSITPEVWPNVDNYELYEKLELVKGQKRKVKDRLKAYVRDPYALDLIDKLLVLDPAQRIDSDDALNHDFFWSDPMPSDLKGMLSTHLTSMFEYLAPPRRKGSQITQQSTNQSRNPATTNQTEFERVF
T1 sequence (O75909 whole entry partner): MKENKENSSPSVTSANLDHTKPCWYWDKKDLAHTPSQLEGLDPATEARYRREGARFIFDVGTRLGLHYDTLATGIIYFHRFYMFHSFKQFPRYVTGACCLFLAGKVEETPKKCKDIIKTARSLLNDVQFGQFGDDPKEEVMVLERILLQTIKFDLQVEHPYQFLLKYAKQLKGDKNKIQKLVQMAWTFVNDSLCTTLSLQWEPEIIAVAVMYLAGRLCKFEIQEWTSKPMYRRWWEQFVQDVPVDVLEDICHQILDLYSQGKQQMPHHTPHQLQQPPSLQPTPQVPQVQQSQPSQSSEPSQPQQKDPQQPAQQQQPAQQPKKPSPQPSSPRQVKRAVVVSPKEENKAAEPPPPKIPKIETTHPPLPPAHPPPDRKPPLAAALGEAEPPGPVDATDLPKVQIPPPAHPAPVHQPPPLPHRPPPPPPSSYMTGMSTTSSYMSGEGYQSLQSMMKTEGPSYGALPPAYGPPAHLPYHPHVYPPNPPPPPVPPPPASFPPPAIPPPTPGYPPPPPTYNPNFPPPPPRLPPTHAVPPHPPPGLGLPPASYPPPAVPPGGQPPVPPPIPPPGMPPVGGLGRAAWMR

In the case of `Cc1cc(Nc2ncc(Cl)c(-n3cc(C(N)=O)c4ccccc43)n2)ccc1N(C)CCN(C)C` [Compound 89, 1-(5-chloro-2-{4-[(2-dimethylamino-ethyl)-methyl-amino]-3-methyl-phenylamino}-pyrimidin-4-yl)-1H-indole-3-carboxamide], the IC50 in assay [1] was 10 to 100 nM; in assay [2] (setting [3]), less than 1 nM.
On to `NC(=O)c1cn(-c2nc(Nc3cccc(N4CCN(C(=O)N5CCOCC5)CC4)c3)ncc2F)c2ccccc12` [Compound 167, 1-(5-fluoro-2-{3-[4-(morpholin-4-carbonyl)-piperazin-1-yl]-phenylamino}-pyrimidin-4-yl)-1H-indole-3-carboxamide], for which the IC50 in assay [1] and in assay [2] (setting [3]) was less than 1 nM throughout.
On to `Cc1cc(Nc2ncc(Cl)c(-n3cc(C(N)=O)c4ccccc43)n2)ccc1N1CCNCC1` [Compound 42, 1-[5-chloro-2-(3-methyl-4-piperazin-1-yl-phenylamino)-pyrimidin-4-yl]-1H-indole-3-carboxamide], for which the IC50 was 1 to 10 nM in assay [1] and less than 1 nM in assay [2] (setting [3]).
For `Cc1cc(Nc2ncc(F)c(-n3cc(C(N)=O)c4ccccc43)n2)ccc1N1CCN(C)CC1` [Compound 55, 1-{5-fluoro-2-[3-methyl-4-(4-methyl-piperazin-1-yl)-phenylamino]-pyrimidin-4-yl}-1H-indole-3-carboxamide], in that order: 1 to 10 nM and less than 1 nM.
Taken in the same sequence, the figures for `CCN1CCN(c2cccc(Nc3ncc(F)c(-n4cc(C(N)=O)c5cc(O)ccc54)n3)c2)CC1` [Compound 163, 1-{2-[3-(4-ethyl-piperazin-1-yl)-phenylamino]-5-fluoro-pyrimidin-4-yl}-5-hydroxy-1H-indole-3-carboxamide] were less than 1 nM and less than 1 nM.
`Cc1cc(Nc2ncc(F)c(-n3cc(C(N)=O)c4ccccc43)n2)ccc1N1CCNCC1` [Compound 39, 1-[5-fluoro-2-(3-methyl-4-piperazin-1-yl-phenylamino)-pyrimidin-4-yl]-1H-indole-3-carboxamide]: the figures for the IC50 in assay [1] and in assay [2] (setting [4]) were 1 to 10 nM and less than 1 nM, respectively.
As to `Cc1cc(Nc2ncc(F)c(-n3cc(C(N)=O)c4ccccc43)n2)ccc1N(C)CCN(C)C` [Compound 88, 1-(2-{4-[(2-dimethylamino-ethyl)-methyl-amino]-3-methyl-phenylamino}-5-fluoro-pyrimidin-4-yl)-1H-indole-3-carboxamide], the IC50 in assay [1] is 10 to 100 nM; in assay [2] (setting [3]) it was less than 1 nM.
For `Cc1cc(Nc2ncc(Cl)c(-n3cc(C(N)=O)c4ccccc43)n2)ccc1N1CCN(C)CC1` [Compound 56, 1-{5-chloro-2-[3-methyl-4-(4-methyl-piperazin-1-yl)-phenylamino]-pyrimidin-4-yl}-1H-indole-3-carboxamide], the IC50 in assay [1] was 1 to 10 nM; in assay [2] (setting [3]), less than 1 nM.
As for `CN1CCN(c2cccc(Nc3ncc(F)c(-n4cc(C(N)=O)c5ccccc54)n3)c2)CC1` [Compound 115, 1-{5-fluoro-2-[3-(4-methyl-piperazin-1-yl)-phenylamino]-pyrimidin-4-yl}-1H-indole-3-carboxamide], the IC50 in assay [1] and in assay [2] (setting [4]) was less than 1 nM throughout.
As for `C=CC(=O)N1CCN(c2cccc(Nc3nccc(-n4cc(C(N)=O)c5ccccc54)n3)c2)CC1` [Compound 127, 1-{2-[3-(4-acryloyl-piperazin-1-yl)-phenylamino]-pyrimidin-4-yl}-1H-indole-3-carboxamide], in assay [2] (setting [3]), the IC50 was in the range of 10 to 100 nM.
With `CN(C)CCOc1ccc(Nc2nccc(-n3cc(C(N)=O)c4ccccc43)n2)cc1` [Compound 19, 1-{2-[4-(2-dimethylamino-ethoxy)-phenylamino]-pyrimidin-4-yl}-1H-indole-3-carboxamide], the IC50 in assay [2] (setting [3]) was in the range of 10 to 100 nM.
On the same count and under the same terms, under `CN1CCN(c2ccc(Nc3ncc(F)c(-n4cc(C(N)=O)c5ccccc54)n3)cc2F)CC1` [Compound 54, 1-{5-fluoro-2-[3-fluoro-4-(4-methyl-piperazin-1-yl)-phenylamino]-pyrimidin-4-yl}-1H-indole-3-carboxamide] stands 1 to 10 nM; under `Cc1cnc(Nc2cccc(N3CCN(C)CC3)c2)nc1-n1cc(C(N)=O)c2ccccc21` [Compound 124, 1-{5-methyl-2-[3-(4-methyl-piperazin-1-yl)-phenylamino]-pyrimidin-4-yl}-1H-indole-3-carboxamide], 1 to 10 nM.
For the compound `CN(CCN1CCCC1)c1ccc(Nc2ncc(F)c(-n3cc(C(N)=O)c4ccccc43)n2)cc1` [Compound 93, 1-(5-fluoro-2-{4-[methyl-(2-pyrrolidin-1-yl-ethyl)-amino]-phenylamino}-pyrimidin-4-yl)-1H-indole-3-carboxamide], in assay [2] (setting [3]), the IC50 is 1 to 10 nM.
On to `CN1CCCN(c2cccc(Nc3nccc(-n4cc(C(N)=O)c5ccccc54)n3)c2)CC1` [Compound 112, 1-{2-[3-(4-methyl-[1,4]homopiperazin-1-yl)-phenylamino]-pyrimidin-4-yl}-1H-indole-3-carboxamide], for which the IC50 in assay [2] (setting [3]) is 1 to 10 nM.
Regarding `COCCN1CCN(c2cccc(Nc3nccc(-n4cc(C(N)=O)c5ccccc54)n3)c2)CC1` [Compound 126, 1-(2-{3-[4-(2-methoxy-ethyl)-piperazin-1-yl]-phenylamino]-pyrimidin-4-yl}-1H-indole-3-carboxamide], the IC50 in assay [2] (setting [3]) was 1 to 10 nM.
In the case of `CN1CCN(Cc2cccc(Nc3ncc(F)c(-n4cc(C(N)=O)c5ccccc54)n3)c2)CC1` [Compound 143, 1-{5-fluoro-2-[3-(4-methyl-piperazin-1-ylmethyl)-phenylamino]-pyrimidin-4-yl}-1H-indole-3-carboxamide], the IC50 in assay [2] (setting [3]) is 10 to 100 nM.
Same read-out and setting: under `CCN1CCN(c2cccc(Nc3ncc(F)c(-n4cc(C(N)=O)c5cc(N)ccc54)n3)c2)CC1` [Compound 162, 5-amino-1-{2-[3-(4-ethyl-piperazin-1-yl)-phenylamino]-5-fluoro-pyrimidin-4-yl}-1H-indole-3-carboxamide] stands 1 to 10 nM; under `NC(=O)c1cn(-c2ccnc(Nc3ccc(N4CCOCC4)cc3)n2)c2ccccc12` [Compound 70, 1-[2-(4-morpholin-4-yl-phenylamino)-pyrimidin-4-yl]-1H-indole-3-carboxamide], 10 to 100 nM; under `NC(=O)c1cn(-c2ccnc(Nc3ccc(N4CCN(CCO)CC4)cc3)n2)c2ccccc12` [Compound 25, 1-(2-{4-[4-(2-hydroxy-ethyl)-piperazin-1-yl]-phenylamino}-pyrimidin-4-yl)-1H-indole-3-carboxamide], 10 to 100 nM.
